# Target: Histone deacetylase
# Experiment: Inhibition of HDAC in human Hela cells nuclear extracts by fluorimetric assay
# Type: cell-based
Compound,Ki [µM],IC50 [mM]
O=C(O)/C=C/c1ccccc1 [CINNAMIC ACID],0.00821,–
CCCC(=O)O [BUTYRIC ACID],136,–
CCCC(=O)[O-].[Na+] [SODIUM BUTYRATE],365,0.8
O=C([O-])CCCc1ccccc1.[Na+] [SODIUM PHENYLBUTYRATE],6.34,–
NCCCC(=O)O [GAMMA-AMINOBUTYRIC ACID],8.19,–
O=C(/C=C/c1ccc(O)c(O)c1)O[C@@H]1C[C@](O)(C(=O)O)C[C@@H](O)[C@H]1O [CHLOROGENIC ACID],0.135,0.375
O=C(O)/C=C/c1ccc(O)c(O)c1 [CAFFEIC ACID],10.84,2.54
